Consider six compounds from ChEMBL document CHEMBL5465560, “Selectivity Literature for EUbOPEN Chemogenomic Library” (2024).

Structures are written as SMILES.

Assay [1] concerns the target Ephrin type-A receptor 2 (Homo sapiens) (UniProt P29317). Particulars: at 10 µM.
Assay [2] concerns the target Calcium/calmodulin-dependent protein kinase type II subunit beta (Homo sapiens) (UniProt Q13554). The experiment in a line: Selectivity interaction (Ambit KINOMEscan and KiNATiv profiling in Jurkat cells) EUB0000090b CAMK2B. Particulars: at 1 µM. Type of assay: cell-based.
Assay [3] has as its target RAC-gamma serine/threonine-protein kinase (Homo sapiens, UniProt Q9Y243). The experiment in a line: Selectivity interaction (Ambit KINOMEscan and KiNATiv profiling in Jurkat cells) EUB0000090b AKT3. Type of assay: cell-based. As to conditions: at 1 µM.
Assay [4] has as its target cAMP-dependent protein kinase catalytic subunit beta (Homo sapiens) (UniProt P22694). The experiment in a line: Selectivity interaction (KinomeScan (DiscoverX)) EUB0000092b PRKACB. As to conditions: at 10 µM.
Assay [5] has as its target T1, Protein kinase C epsilon type (Homo sapiens) (UniProt Q02156).
T1 sequence (whole entry): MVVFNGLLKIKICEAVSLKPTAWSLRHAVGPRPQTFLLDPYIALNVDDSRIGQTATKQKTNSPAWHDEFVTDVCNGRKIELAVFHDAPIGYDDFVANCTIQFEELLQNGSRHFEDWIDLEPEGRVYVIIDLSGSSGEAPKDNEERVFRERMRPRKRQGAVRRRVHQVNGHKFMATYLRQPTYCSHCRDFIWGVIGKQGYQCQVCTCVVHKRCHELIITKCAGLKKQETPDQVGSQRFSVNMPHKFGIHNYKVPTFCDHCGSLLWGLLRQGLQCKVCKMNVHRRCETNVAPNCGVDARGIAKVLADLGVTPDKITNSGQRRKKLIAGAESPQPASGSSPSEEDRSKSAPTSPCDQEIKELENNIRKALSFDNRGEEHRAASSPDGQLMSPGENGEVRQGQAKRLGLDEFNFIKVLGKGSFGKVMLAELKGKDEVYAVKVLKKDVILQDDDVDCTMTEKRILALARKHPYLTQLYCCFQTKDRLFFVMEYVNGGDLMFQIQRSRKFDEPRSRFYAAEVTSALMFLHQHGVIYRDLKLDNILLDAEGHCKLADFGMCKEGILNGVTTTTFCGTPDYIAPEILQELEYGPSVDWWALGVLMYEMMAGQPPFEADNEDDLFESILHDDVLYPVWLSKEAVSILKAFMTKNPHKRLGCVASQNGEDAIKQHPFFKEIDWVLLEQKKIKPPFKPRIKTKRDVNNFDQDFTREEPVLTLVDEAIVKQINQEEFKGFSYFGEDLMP
The experiment in a line: Selectivity interaction (KinomeScan (DiscoverX)) EUB0000666a PRKCE. Particulars: at 10 µM.

Assay [6] deals with Serine/threonine-protein kinase PAK 2 (Homo sapiens) (UniProt Q13177). The experiment in a line: Selectivity interaction (KinomeScan (DiscoverX)) EUB0000666a PAK2. As to conditions: at 10 µM.
Assay [7] deals with T2, Serine/threonine-protein kinase 3 (Homo sapiens) (UniProt Q13188).
T2 sequence (whole entry): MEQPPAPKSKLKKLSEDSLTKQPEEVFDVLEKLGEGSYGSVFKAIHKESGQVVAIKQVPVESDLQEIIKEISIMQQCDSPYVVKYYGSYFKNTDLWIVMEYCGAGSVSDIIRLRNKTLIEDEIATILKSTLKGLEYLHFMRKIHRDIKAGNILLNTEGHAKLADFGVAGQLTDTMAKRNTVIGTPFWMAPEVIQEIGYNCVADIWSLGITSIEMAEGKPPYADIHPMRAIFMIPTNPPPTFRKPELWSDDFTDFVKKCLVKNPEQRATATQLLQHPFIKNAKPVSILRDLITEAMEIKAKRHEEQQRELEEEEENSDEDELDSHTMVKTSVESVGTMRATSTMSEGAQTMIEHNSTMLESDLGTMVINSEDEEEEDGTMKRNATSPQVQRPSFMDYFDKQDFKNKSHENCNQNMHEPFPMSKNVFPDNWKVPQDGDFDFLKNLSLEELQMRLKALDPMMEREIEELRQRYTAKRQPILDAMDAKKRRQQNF
The experiment in a line: Selectivity interaction (ActivX KiNativ screen (kinase selectivity in THP-1 cell lysates)) EUB0000639a STK3. Type of assay: subcellular. Particulars: lysate.

Assay [8] concerns the target T3, Receptor-type tyrosine-protein kinase FLT3 (Homo sapiens, UniProt P36888).
T3 sequence (P36888 whole entry): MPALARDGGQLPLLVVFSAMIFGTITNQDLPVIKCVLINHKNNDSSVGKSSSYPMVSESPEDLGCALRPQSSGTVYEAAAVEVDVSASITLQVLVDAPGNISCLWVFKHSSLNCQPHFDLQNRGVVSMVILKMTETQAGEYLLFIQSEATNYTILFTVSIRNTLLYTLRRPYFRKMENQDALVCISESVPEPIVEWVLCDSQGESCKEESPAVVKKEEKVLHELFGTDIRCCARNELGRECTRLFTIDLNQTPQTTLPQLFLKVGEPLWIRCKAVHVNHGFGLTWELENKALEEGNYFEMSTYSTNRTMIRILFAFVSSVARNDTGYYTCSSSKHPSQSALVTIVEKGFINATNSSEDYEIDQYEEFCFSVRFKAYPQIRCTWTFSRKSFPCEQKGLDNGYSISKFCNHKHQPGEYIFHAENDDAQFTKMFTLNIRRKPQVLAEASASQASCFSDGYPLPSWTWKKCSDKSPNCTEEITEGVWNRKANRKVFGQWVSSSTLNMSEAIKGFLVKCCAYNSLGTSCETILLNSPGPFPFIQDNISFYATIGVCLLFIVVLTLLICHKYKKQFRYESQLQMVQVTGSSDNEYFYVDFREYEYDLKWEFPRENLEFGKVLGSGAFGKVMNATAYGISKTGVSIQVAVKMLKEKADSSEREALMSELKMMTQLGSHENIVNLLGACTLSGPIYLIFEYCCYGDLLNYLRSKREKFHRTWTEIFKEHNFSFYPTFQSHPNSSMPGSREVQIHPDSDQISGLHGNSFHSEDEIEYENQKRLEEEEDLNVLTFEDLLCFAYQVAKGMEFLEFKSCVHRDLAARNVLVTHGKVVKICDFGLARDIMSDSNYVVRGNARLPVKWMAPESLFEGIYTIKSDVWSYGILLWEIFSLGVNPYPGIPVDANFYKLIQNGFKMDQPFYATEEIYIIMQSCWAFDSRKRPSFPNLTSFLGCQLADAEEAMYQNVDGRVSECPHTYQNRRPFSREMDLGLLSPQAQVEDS
The experiment in a line: Selectivity interaction (Kinase panel (Invitrogen, enzymatic assay)) EUB0000162b FLT3.

Sequence of Ephrin type-A receptor 2 (Homo sapiens) (P29317 whole entry): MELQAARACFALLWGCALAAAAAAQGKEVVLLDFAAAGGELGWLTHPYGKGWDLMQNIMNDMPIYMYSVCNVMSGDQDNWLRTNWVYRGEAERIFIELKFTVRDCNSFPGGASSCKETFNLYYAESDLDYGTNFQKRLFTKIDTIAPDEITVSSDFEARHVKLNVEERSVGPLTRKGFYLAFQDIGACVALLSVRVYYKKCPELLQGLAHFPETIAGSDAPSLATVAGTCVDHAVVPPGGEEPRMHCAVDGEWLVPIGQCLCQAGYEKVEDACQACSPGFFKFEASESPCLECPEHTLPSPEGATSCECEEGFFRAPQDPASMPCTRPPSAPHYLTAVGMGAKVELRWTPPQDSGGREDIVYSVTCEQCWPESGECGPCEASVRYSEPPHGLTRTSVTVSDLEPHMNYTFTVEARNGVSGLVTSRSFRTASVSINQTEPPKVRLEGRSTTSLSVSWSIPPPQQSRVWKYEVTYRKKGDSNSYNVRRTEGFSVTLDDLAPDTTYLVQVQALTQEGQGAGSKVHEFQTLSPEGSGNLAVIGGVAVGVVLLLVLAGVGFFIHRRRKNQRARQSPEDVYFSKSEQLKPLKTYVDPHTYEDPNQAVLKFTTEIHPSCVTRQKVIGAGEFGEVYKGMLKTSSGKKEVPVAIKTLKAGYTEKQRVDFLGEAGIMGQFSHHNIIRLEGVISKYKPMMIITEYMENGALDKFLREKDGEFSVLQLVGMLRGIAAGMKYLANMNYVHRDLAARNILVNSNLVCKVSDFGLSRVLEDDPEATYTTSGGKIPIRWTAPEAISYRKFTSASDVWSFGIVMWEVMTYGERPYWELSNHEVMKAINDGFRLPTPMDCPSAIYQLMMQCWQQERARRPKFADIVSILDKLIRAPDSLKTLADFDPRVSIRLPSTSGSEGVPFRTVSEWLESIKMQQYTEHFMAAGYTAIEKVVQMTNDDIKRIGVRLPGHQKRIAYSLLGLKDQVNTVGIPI
Sequence of Serine/threonine-protein kinase PAK 2 (Homo sapiens) (Q13177 whole entry): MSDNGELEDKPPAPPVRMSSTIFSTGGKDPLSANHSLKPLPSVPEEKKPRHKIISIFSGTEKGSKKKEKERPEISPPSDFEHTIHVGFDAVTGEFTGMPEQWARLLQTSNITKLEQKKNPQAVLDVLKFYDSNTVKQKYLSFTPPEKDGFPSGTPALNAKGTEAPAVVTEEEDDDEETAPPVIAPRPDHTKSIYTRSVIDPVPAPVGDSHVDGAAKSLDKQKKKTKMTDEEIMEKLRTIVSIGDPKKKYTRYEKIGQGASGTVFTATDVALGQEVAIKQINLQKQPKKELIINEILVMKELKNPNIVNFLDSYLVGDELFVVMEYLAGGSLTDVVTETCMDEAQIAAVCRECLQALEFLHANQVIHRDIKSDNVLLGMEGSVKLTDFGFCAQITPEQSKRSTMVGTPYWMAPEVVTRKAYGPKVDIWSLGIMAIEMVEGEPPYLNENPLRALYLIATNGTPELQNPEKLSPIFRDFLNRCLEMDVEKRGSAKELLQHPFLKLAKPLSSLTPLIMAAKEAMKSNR
Sequence of RAC-gamma serine/threonine-protein kinase (Q9Y243 whole entry): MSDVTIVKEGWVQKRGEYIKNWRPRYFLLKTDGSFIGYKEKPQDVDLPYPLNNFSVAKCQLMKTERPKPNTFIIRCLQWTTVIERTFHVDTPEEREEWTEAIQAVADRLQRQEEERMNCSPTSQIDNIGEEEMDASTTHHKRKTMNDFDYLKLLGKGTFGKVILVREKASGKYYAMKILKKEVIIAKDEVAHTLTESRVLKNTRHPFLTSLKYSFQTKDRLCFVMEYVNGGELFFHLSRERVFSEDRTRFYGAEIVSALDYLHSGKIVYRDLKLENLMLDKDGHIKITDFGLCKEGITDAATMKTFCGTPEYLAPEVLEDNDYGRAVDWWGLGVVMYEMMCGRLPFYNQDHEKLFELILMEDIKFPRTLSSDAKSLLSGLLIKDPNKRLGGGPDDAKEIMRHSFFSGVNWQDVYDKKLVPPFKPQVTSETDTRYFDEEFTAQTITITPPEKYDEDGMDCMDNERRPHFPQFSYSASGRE
Sequence of Calcium/calmodulin-dependent protein kinase type II subunit beta (Homo sapiens) (Q13554 whole entry): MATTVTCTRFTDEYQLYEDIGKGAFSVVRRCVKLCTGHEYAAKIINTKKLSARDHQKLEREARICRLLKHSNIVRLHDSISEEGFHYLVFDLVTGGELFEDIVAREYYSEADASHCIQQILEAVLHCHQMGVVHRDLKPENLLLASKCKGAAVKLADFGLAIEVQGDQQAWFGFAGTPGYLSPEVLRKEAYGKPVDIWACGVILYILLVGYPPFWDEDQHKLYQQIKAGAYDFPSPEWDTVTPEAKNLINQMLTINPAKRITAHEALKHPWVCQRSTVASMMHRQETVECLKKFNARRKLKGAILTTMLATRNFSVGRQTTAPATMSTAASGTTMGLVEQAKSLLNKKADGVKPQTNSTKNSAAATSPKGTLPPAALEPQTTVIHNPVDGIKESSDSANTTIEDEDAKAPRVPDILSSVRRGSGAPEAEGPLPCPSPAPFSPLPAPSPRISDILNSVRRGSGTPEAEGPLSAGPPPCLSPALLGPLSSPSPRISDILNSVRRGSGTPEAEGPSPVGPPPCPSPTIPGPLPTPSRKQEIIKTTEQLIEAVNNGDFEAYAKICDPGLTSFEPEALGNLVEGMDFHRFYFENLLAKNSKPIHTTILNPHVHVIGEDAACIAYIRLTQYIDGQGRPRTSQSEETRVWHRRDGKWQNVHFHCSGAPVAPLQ

In turn, `Cc1cc([C@@H](C)Nc2ccccc2C(=O)O)c2nc(N3CCOCC3)cc(=O)n2c1` [AZD-6482] returned a % of control in assay [1] of 70%.
With `CN(C)C/C=C/C(=O)Nc1ccc(C(=O)N2CCCC(Nc3ncc(Cl)c(-c4c[nH]c5ccccc45)n3)C2)cc1` (configuration not stated), the % of control in assay [2] was found to be 94%; in assay [3], 96%.
Turning to `CCC(=O)N1CCN(c2ccc(-n3c(=O)ccc4cnc5ccc(-c6cnc7ccccc7c6)cc5c43)cc2C(F)(F)F)CC1`, in assay [4], the % of control was found to be 100%.
Regarding `O=C(NOC[C@H](O)CO)c1ccc(F)c(F)c1Nc1ccc(I)cc1F`, the % of control was 100% in assay [5] and 93% in assay [6].
Turning to `CC[C@@H]1[C@H](F)C(=O)N[C@@H]1COc1nccc2cc(C(N)=O)c(OC)cc12` [ZIMLOVISERTIB], the % of inhibition in assay [7] (at 0.01 µM) is -6.8%; in assay [7] (at 0.04 µM), -5.9%; in assay [7] (at 0.2 µM) it was -9.3%; in assay [7] (at 1 µM), 4%; in assay [7] (at 5 µM) it was 11.1%.
By IC50 is commonly meant the midpoint of a concentration-inhibition curve. Lower therefore signals inhibition by little substance. In assay [8], `CN(C)C(=O)Cn1cc(-c2ccc(-c3cncc4ccccc34)cc2)cn1` came in with an IC50 of 1.36 µM.
